What was measured:
[1] = system: target transcript mRNA in A549 cells; assay: Level of mRNA of target transcript in A549 cells by quantitative RT-PCR (Tables 12 and 13); assay type: cell-based, human; conditions: 24 h post-transfection
Method in brief: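 Target mRNA was measured by SYBR Green quantitative RT-PCR using random-primed cDNA, normalised to HPRT and Lamin. Samples came from A549 cells 24 h post-transfection with 0.1, 1.0 or 10 nM siRNA.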

A549 cells = assay: Growth inhibition of siRNA-transfected A549 cells, SYBR Green I DNA content; assay type: cell-based, human; conditions: 10 nM siRNA, DNA content 96 hours after transfection; for Growth Inhibition in A549 cells by 10 nM siRNA: transporter gene targets
Method in brief: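 Growth read-out: cellular DNA quantified with SYBR Green I (485/535 nm) 96 h after transfection, cells frozen, thawed and lysed in PBS/1% Triton X-100, pH 7. Cells (A549, 5×10^3 cells/cm^2) received 10 nM siRNA by RNAiMAX; non-specific siRNA served as control; triplicate wells averaged.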

Row | Substance | mRNA knockdown of energy and metabolism gene target transcript, 0.1 nM ([1]; 0.1 nM siRNA) | mRNA knockdown of energy and metabolism gene target transcript, 1 nM ([1]; 1 nM siRNA) | Growth Inhibition in A549 cells (A549 cells) | mRNA knockdown of transporter gene target transcript, 0.1 nM ([1]; 0.1 nM siRNA) | mRNA knockdown of transporter gene target transcript, 1 nM ([1]; 1 nM siRNA) | Growth Inhibition in A549 cells by 10 nM siRNA (A549 cells)
1 | SEQ ID NO: 5306: Stealth siRNA targeting RRM2 (chain 1 TGTCCAGGTGTTTGAACATCAGGC; chain 2 UGUACCAGGUGUUUGAACAUCAGGC; Stealth siRNA, chemical pattern not given here) | ++ (70-90% mRNA knockdown) | + (50-70% mRNA knockdown) | ++ (inhibits by at least 75%) |  |  | 
2 | SEQ ID NO: 4906: siRNA targeting SLC7A11 (xCT) (chain 1 TAATGAGAAATTTCCCAGTAGCCGC; chain 2 UAAUGAGAAAUUUCCCAGUAGCCGC; Antisense strand given in DNA and RNA notation, chemistry not given here; one strand in two spellings) |  |  |  | + (50-70% mRNA knockdown) | ++ (70-90% mRNA knockdown) | − (no growth inhibition)
3 | SEQ ID NO: 4912: siRNA targeting SLC5A6 (SMVT1) (chain 1 ACCAGTGTCTGGAACACATCTGTCC; chain 2 ACCAGUGUCUGGAACACAUCUGUCC; Antisense strand given in DNA and RNA notation, chemistry not given here; one strand in two spellings) |  |  |  | + (50-70% mRNA knockdown) | + (50-70% mRNA knockdown) | − (no growth inhibition)
4 | SEQ ID NO: 4911: siRNA targeting SLC5A6 (SMVT1) (chain 1 AATGACGGAGCATAGAGCACAACTC; chain 2 AAUGACGGAGCAUAGAGCACAACUC; Antisense strand given in DNA and RNA notation, chemistry not given here; one strand in two spellings) |  |  |  | ++ (70-90% mRNA knockdown) | ++ (70-90% mRNA knockdown) | − (no growth inhibition)
5 | SEQ ID NO: 4957: siRNA targeting ATP6V1C1 (chain 1 TAGACCTTGGAACTACCATTTCGGC; chain 2 UAGACCUUGGAACUACCAUUUCGGC; chemistry not given here; one strand in two spellings) |  |  |  | ++ (70-90% mRNA knockdown) | ++ (70-90% mRNA knockdown) | − (no growth inhibition)
6 | SEQ ID NO: 4892: siRNA targeting SLC2A1 (GLUT1) (chain 1 TGTCTTATCACTTTGGCTGGCTCCC; chain 2 UGUCUUAUCACUUUGGCUGGCUCCC; Antisense strand given in DNA and RNA notation, chemistry not given here; one strand in two spellings) |  |  |  | − (<50% mRNA knockdown) | − (<50% mRNA knockdown) | + (inhibits by at least 50%)
7 | SEQ ID NO: 4901: siRNA targeting SLC7A5 (LAT1) (chain 1 AGCGTCATCACACACGTGAACACGA; chain 2 AGCGUCAUCACACACGUGAACACGA; Antisense strand given in DNA and RNA notation, chemistry not given here; one strand in two spellings) |  |  |  | ++ (70-90% mRNA knockdown) | ++ (70-90% mRNA knockdown) | − (no growth inhibition)
8 | SEQ ID NO: 4926: siRNA targeting SLC25A1 (CIC) (chain 1 AGTCCCACGTGTTCCGGTATTTGTG; chain 2 AGUCCCACGUGUUCCGGUAUUUGUG; chemistry not given here; one strand in two spellings) |  |  |  | ++ (70-90% mRNA knockdown) | ++ (70-90% mRNA knockdown) | ++ (inhibits by at least 75%)
9 | SEQ ID NO: 4918: siRNA targeting SLC23A2 (SVCT2) (chain 1 AATCCAAGCACAAAGAGGTTCCGGG; chain 2 AAUCCAAGCACAAAGAGGUUCCGGG; Antisense strand given in DNA and RNA notation, chemistry not given here; one strand in two spellings) |  |  |  | ++ (70-90% mRNA knockdown) | ++ (70-90% mRNA knockdown) | − (no growth inhibition)
10 | SEQ ID NO: 4936: siRNA targeting SLC29A2 (ENT2) (chain 1 AAGATCCAGGGTCAGAGCTACTTTC; chain 2 AAGAUCCAGGGUCAGAGCUACUUUC; chemistry not given here; one strand in two spellings) |  |  |  | − (<50% mRNA knockdown) | − (<50% mRNA knockdown) | − (no growth inhibition)
11 | SEQ ID NO: 4893: siRNA targeting SLC2A1 (GLUT1) (chain 1 TTCATCATCAGCATTGAATTCCGCC; chain 2 UUCAUCAUCAGCAUUGAAUUCCGCC; Antisense strand given in DNA and RNA notation, chemistry not given here; one strand in two spellings) |  |  |  | − (<50% mRNA knockdown) | − (<50% mRNA knockdown) | ++ (inhibits by at least 75%)
12 | SEQ ID NO: 4907: siRNA targeting SLC3A2 (4F2hc) (chain 1 TTTGTTGGATTCGAGTAGGCTCAGG; chain 2 UUUGUUGGAUUCGAGUAGGCUCAGG; Antisense strand given in DNA and RNA notation, chemistry not given here; one strand in two spellings) |  |  |  | − (<50% mRNA knockdown) | − (<50% mRNA knockdown) | − (no growth inhibition)
13 | SEQ ID NO: 4917: siRNA targeting SLC23A2 (SVCT2) (chain 1 AACAGCTGTAACTTGTACGCAGTCC; chain 2 AACAGCUGUAACUUGUACGCAGUCC; Antisense strand given in DNA and RNA notation, chemistry not given here; one strand in two spellings) |  |  |  | ++ (70-90% mRNA knockdown) | ++ (70-90% mRNA knockdown) | − (no growth inhibition)
14 | SEQ ID NO: 4927: siRNA targeting SLC25A1 (CIC) (chain 1 TGCCTTTGTAGAATGCCTTGAGCCC; chain 2 UGCCUUUGUAGAAUGCCUUGAGCCC; chemistry not given here; one strand in two spellings) |  |  |  | ++ (70-90% mRNA knockdown) | ++ (70-90% mRNA knockdown) | − (no growth inhibition)
15 | SEQ ID NO: 4903: siRNA targeting SLC7A5 (LAT1) (chain 1 ACGAAATTCAAGTAATTCCATCCTC; chain 2 ACGAAAUUCAAGUAAUUCCAUCCUC; Antisense strand given in DNA and RNA notation, chemistry not given here; one strand in two spellings) |  |  |  | ++ (70-90% mRNA knockdown) | +++ (>90% mRNA knockdown) | − (no growth inhibition)
16 | SEQ ID NO: 4910: siRNA targeting SLC5A6 (SMVT1) (chain 1 AAGGCAAGGCCTCTGGAAAGCATGA; chain 2 AAGGCAAGGCCUCUGGAAAGCAUGA; Antisense strand given in DNA and RNA notation, chemistry not given here; one strand in two spellings) |  |  |  | − (<50% mRNA knockdown) | + (50-70% mRNA knockdown) | − (no growth inhibition)
17 | SEQ ID NO: 4935: siRNA targeting SLC29A2 (ENT2) (chain 1 TAACACACGATGGACATGAGGATGC; chain 2 UAACACACGAUGGACAUGAGGAUGC; chemistry not given here; one strand in two spellings) |  |  |  | + (50-70% mRNA knockdown) | + (50-70% mRNA knockdown) | − (no growth inhibition)
